Measured values reported in US20240360177A1, “PEPTIDES WITH ANTIMICROBIAL ACTIVITIES” (priority 2021, published 2024).
In brackets after ≈: the same amount, converted by molar mass. Starred links: 1 amine or outer side, 2 acyl side, 3 side chain; linkers in the order of their positions; H or OH if unused. Non-standard residues stand in square brackets, D forms with d. Residues, ends and D or L forms follow the SMILES beside them. Groups on a side chain read outwards from the residue. N(2-Aminoethyl)Gly = O=C(CN(CCN[*:3])[*:1])[*:2]; NBuGly = CCCCNCC(=O)O; Aoc = NCCCCCCCC(=O)O; AEA = NCCOCC(=O)O; Ava = NCCCCC(=O)O; βAla = NCCC(=O)O

Columns and labels:
Conditions in all cases: 24 h
C. albicans = test system: C. albicans
C. parapsilosis = test system: C. parapsilosis
C. dubliniensis = test system: C. dubliniensis
C. tropicalis = test system: C. tropicalis
C. glabrata = test system: C. glabrata

N=C(N)NCCC[C@H](NC(=O)[C@@H](CCCNC(=N)N)NC(=O)[C@H](CCCNC(=N)N)NC(=O)[C@@H](CCCNC(=N)N)NC(=O)CCNC(=O)[C@H](CCCNC(=N)N)NC(=O)[C@@H](CCCNC(=N)N)NC(=O)[C@H](CCCNC(=N)N)NC(=O)[C@@H](CCCNC(=N)N)NC(=O)CCNC(=O)[C@@H](CCCNC(=N)N)NC(=O)[C@H](CCCNC(=N)N)NC(=O)[C@@H](CCCNC(=N)N)NC(=O)CCNC(=O)[C@H](CCCNC(=N)N)NC(=O)[C@H](CCCNC(=N)N)NC(=O)[C@@H](N)CCCNC(=N)N)C(N)=O [SEQ ID NO: 9, RRR-(Apr)-rRr-(Apr)-rRrR-(Apr)-rRrR-NH2] (H-RRR[βAla][dR]R[dR][βAla][dR]R[dR]R[βAla][dR]R[dR]R-NH2)
MIC C. albicans (C. albicans): 0.5 µg/mL (≈ 0.207 µM)
MIC C. parapsilosis (C. parapsilosis): 0.5 µg/mL (≈ 0.207 µM)
MIC C. dubliniensis (C. dubliniensis): 0.5 µg/mL (≈ 0.207 µM)
MIC C. tropicalis (C. tropicalis): 0.5 µg/mL (≈ 0.207 µM)
MIC C. glabrata (C. glabrata): 2 µg/mL (≈ 0.828 µM)

N=C(N)NCCC[C@@H](N)C(=O)N[C@@H](CCCNC(=N)N)C(=O)N[C@H](CCCNC(=N)N)C(=O)NCCC(=O)N[C@@H](CCCNC(=N)N)C(=O)N[C@@H](CCCNC(=N)N)C(=O)N[C@@H](CCCNC(=N)N)C(=O)NCCC(=O)N[C@H](CCCNC(=N)N)C(=O)N[C@@H](CCCNC(=N)N)C(=O)N[C@H](CCCNC(=N)N)C(=O)N[C@@H](CCCNC(=N)N)C(=O)NCCC(=O)N[C@H](CCCNC(=N)N)C(=O)N[C@@H](CCCNC(=N)N)C(=O)N[C@H](CCCNC(=N)N)C(=O)N[C@@H](CCCNC(=N)N)C(N)=O [SEQ ID NO: 10, rRr-(Apr)-RRR-(Apr)-rRrR-(Apr)-rRrR-NH2] (H-[dR]R[dR][βAla]RRR[βAla][dR]R[dR]R[βAla][dR]R[dR]R-NH2)
MIC C. albicans (C. albicans): 0.5 µg/mL (≈ 0.207 µM)
MIC C. parapsilosis (C. parapsilosis): 0.5 µg/mL (≈ 0.207 µM)
MIC C. dubliniensis (C. dubliniensis): 0.5 µg/mL (≈ 0.207 µM)
MIC C. tropicalis (C. tropicalis): 0.5 µg/mL (≈ 0.207 µM)
MIC C. glabrata (C. glabrata): 2 µg/mL (≈ 0.828 µM)

N=C(N)NCCC[C@@H](N)C(=O)N[C@@H](CCCNC(=N)N)C(=O)N[C@H](CCCNC(=N)N)C(=O)NCCC(=O)N[C@H](CCCNC(=N)N)C(=O)N[C@@H](CCCNC(=N)N)C(=O)N[C@H](CCCNC(=N)N)C(=O)NCCC(=O)N[C@@H](CCCNC(=N)N)C(=O)N[C@@H](CCCNC(=N)N)C(=O)N[C@@H](CCCNC(=N)N)C(=O)N[C@@H](CCCNC(=N)N)C(=O)NCCC(=O)N[C@H](CCCNC(=N)N)C(=O)N[C@@H](CCCNC(=N)N)C(=O)N[C@H](CCCNC(=N)N)C(=O)N[C@@H](CCCNC(=N)N)C(N)=O [SEQ ID NO: 11, rRr-(Apr)-rRr-(Apr)-RRRR-(Apr)-rRrR-NH2] (H-[dR]R[dR][βAla][dR]R[dR][βAla]RRRR[βAla][dR]R[dR]R-NH2)
MIC C. albicans (C. albicans): 1 µg/mL (≈ 0.414 µM)
MIC C. parapsilosis (C. parapsilosis): 0.5 µg/mL (≈ 0.207 µM)
MIC C. dubliniensis (C. dubliniensis): 0.5 µg/mL (≈ 0.207 µM)
MIC C. tropicalis (C. tropicalis): 2 µg/mL (≈ 0.828 µM)
MIC C. glabrata (C. glabrata): >32 µg/mL

N=C(N)NCCC[C@@H](N)C(=O)N[C@@H](CCCNC(=N)N)C(=O)N[C@H](CCCNC(=N)N)C(=O)NCCC(=O)N[C@H](CCCNC(=N)N)C(=O)N[C@@H](CCCNC(=N)N)C(=O)N[C@H](CCCNC(=N)N)C(=O)NCCC(=O)N[C@H](CCCNC(=N)N)C(=O)N[C@@H](CCCNC(=N)N)C(=O)N[C@H](CCCNC(=N)N)C(=O)N[C@@H](CCCNC(=N)N)C(=O)NCCC(=O)N[C@@H](CCCNC(=N)N)C(=O)N[C@@H](CCCNC(=N)N)C(=O)N[C@@H](CCCNC(=N)N)C(=O)N[C@@H](CCCNC(=N)N)C(N)=O [SEQ ID NO: 12, rRr-(Apr)-rRr-(Apr)-rRrR-(Apr)-RRRR-NH2] (H-[dR]R[dR][βAla][dR]R[dR][βAla][dR]R[dR]R[βAla]RRRR-NH2)
MIC C. albicans (C. albicans): 0.5 µg/mL (≈ 0.207 µM)
MIC C. parapsilosis (C. parapsilosis): 0.5 µg/mL (≈ 0.207 µM)
MIC C. dubliniensis (C. dubliniensis): 0.5 µg/mL (≈ 0.207 µM)
MIC C. tropicalis (C. tropicalis): 1 µg/mL (≈ 0.414 µM)
MIC C. glabrata (C. glabrata): >32 µg/mL

N=C(N)NCCC[C@@H](N)C(=O)N[C@@H](CCCNC(=N)N)C(=O)N[C@H](CCCNC(=N)N)C(=O)NCCCCCCCC(=O)N[C@H](CCCNC(=N)N)C(=O)N[C@@H](CCCNC(=N)N)C(=O)N[C@H](CCCNC(=N)N)C(=O)NCCCCCCCC(=O)N[C@H](CCCNC(=N)N)C(=O)N[C@@H](CCCNC(=N)N)C(=O)N[C@H](CCCNC(=N)N)C(=O)N[C@@H](CCCNC(=N)N)C(=O)NCCCCCCCC(=O)N[C@H](CCCNC(=N)N)C(=O)N[C@@H](CCCNC(=N)N)C(=O)N[C@H](CCCNC(=N)N)C(=O)N[C@@H](CCCNC(=N)N)C(=O)O [SEQ ID NO: 30, rRr-(Aoa)-rRr-(Aoa)-rRrR-(Aoa)-rRrR] (H-[dR]R[dR][Aoc][dR]R[dR][Aoc][dR]R[dR]R[Aoc][dR]R[dR]R-OH)
MIC C. albicans (C. albicans): 1 µg/mL (≈ 0.38 µM)
MIC C. parapsilosis (C. parapsilosis): 0.5 µg/mL (≈ 0.19 µM)
MIC C. dubliniensis (C. dubliniensis): 0.5 µg/mL (≈ 0.19 µM)
MIC C. tropicalis (C. tropicalis): 1 µg/mL (≈ 0.38 µM)
MIC C. glabrata (C. glabrata): 1 µg/mL (≈ 0.38 µM)

CCCCN(CC(=O)N[C@H](CCCNC(=N)N)C(=O)N[C@@H](CCCNC(=N)N)C(=O)N(CCCC)CC(=O)N[C@H](CCCNC(=N)N)C(=O)N[C@@H](CCCNC(=N)N)C(=O)N[C@H](CCCNC(=N)N)C(=O)N(CCCC)CC(=O)N[C@H](CCCNC(=N)N)C(=O)N[C@@H](CCCNC(=N)N)C(=O)N[C@H](CCCNC(=N)N)C(N)=O)C(=O)[C@H](CCCNC(=N)N)NC(=O)[C@H](N)CCCNC(=N)N [SEQ ID NO: 36, rR-(ButylGly)-rR-(ButylGly)-rRr-(ButylGly)-rRr-NH2] (H-[dR]R[NBuGly][dR]R[NBuGly][dR]R[dR][NBuGly][dR]R[dR]-NH2)
MIC C. albicans (C. albicans): 0.5 µg/mL (≈ 0.261 µM)
MIC C. parapsilosis (C. parapsilosis): 16 µg/mL (≈ 8.34 µM)
MIC C. dubliniensis (C. dubliniensis): 2 µg/mL (≈ 1.04 µM)
MIC C. tropicalis (C. tropicalis): 2 µg/mL (≈ 1.04 µM)
MIC C. glabrata (C. glabrata): 4 µg/mL (≈ 2.09 µM)

N=C(N)NCCC[C@@H](N)C(=O)N[C@@H](CCCNC(=N)N)C(=O)N[C@H](CCCNC(=N)N)C(=O)NCCNCC(=O)N[C@H](CCCNC(=N)N)C(=O)N[C@@H](CCCNC(=N)N)C(=O)N[C@H](CCCNC(=N)N)C(=O)NCCCCC(=O)N[C@H](CCCNC(=N)N)C(=O)N[C@@H](CCCNC(=N)N)C(=O)N[C@H](CCCNC(=N)N)C(=O)N[C@@H](CCCNC(=N)N)C(=O)NCCCCC(=O)N[C@H](CCCNC(=N)N)C(=O)N[C@@H](CCCNC(=N)N)C(=O)N[C@H](CCCNC(=N)N)C(=O)N[C@@H](CCCNC(=N)N)C(N)=O [SEQ ID NO: 41, rRr-(Aeg)-rRr-(Ava)-rRrR-(Ava)-rRrR-NH2] (H-[N(2-Aminoethyl)Gly]([dR-Arg-dR])[dR]R[dR][Ava][dR]R[dR]R[Ava][dR]R[dR]R-NH2)
MIC C. albicans (C. albicans): 1 µg/mL (≈ 0.4 µM)
MIC C. parapsilosis (C. parapsilosis): 1 µg/mL (≈ 0.4 µM)
MIC C. dubliniensis (C. dubliniensis): 0.5 µg/mL (≈ 0.2 µM)
MIC C. tropicalis (C. tropicalis): 1 µg/mL (≈ 0.4 µM)
MIC C. glabrata (C. glabrata): 2 µg/mL (≈ 0.799 µM)

N=C(N)NCCC[C@@H](N)C(=O)N[C@@H](CCCNC(=N)N)C(=O)N[C@H](CCCNC(=N)N)C(=O)NCCCCC(=O)N[C@H](CCCNC(=N)N)C(=O)N[C@@H](CCCNC(=N)N)C(=O)N[C@H](CCCNC(=N)N)C(=O)NCCNCC(=O)N[C@H](CCCNC(=N)N)C(=O)N[C@@H](CCCNC(=N)N)C(=O)N[C@H](CCCNC(=N)N)C(=O)N[C@@H](CCCNC(=N)N)C(=O)NCCCCC(=O)N[C@H](CCCNC(=N)N)C(=O)N[C@@H](CCCNC(=N)N)C(=O)N[C@H](CCCNC(=N)N)C(=O)N[C@@H](CCCNC(=N)N)C(N)=O [SEQ ID NO: 42, rRr-(Ava)-rRr-(Aeg)-rRrR-(Ava)-rRrR-NH2]
MIC C. albicans (C. albicans): 1 µg/mL (≈ 0.4 µM)
MIC C. parapsilosis (C. parapsilosis): 0.5 µg/mL (≈ 0.2 µM)
MIC C. dubliniensis (C. dubliniensis): 0.5 µg/mL (≈ 0.2 µM)
MIC C. tropicalis (C. tropicalis): 0.5 µg/mL (≈ 0.2 µM)
MIC C. glabrata (C. glabrata): 1 µg/mL (≈ 0.4 µM)

N=C(N)NCCC[C@@H](N)C(=O)N[C@@H](CCCNC(=N)N)C(=O)N[C@H](CCCNC(=N)N)C(=O)NCCCCC(=O)N[C@H](CCCNC(=N)N)C(=O)N[C@@H](CCCNC(=N)N)C(=O)N[C@H](CCCNC(=N)N)C(=O)NCCCCC(=O)N[C@H](CCCNC(=N)N)C(=O)N[C@@H](CCCNC(=N)N)C(=O)N[C@H](CCCNC(=N)N)C(=O)N[C@@H](CCCNC(=N)N)C(=O)NCCNCC(=O)N[C@H](CCCNC(=N)N)C(=O)N[C@@H](CCCNC(=N)N)C(=O)N[C@H](CCCNC(=N)N)C(=O)N[C@@H](CCCNC(=N)N)C(N)=O [SEQ ID NO: 43, rRr-(Ava)-rRr-(Ava)-rRrR-(Aeg)-rRrR-NH2]
MIC C. albicans (C. albicans): 1 µg/mL (≈ 0.4 µM)
MIC C. parapsilosis (C. parapsilosis): 0.5 µg/mL (≈ 0.2 µM)
MIC C. dubliniensis (C. dubliniensis): 0.5 µg/mL (≈ 0.2 µM)
MIC C. tropicalis (C. tropicalis): 0.5 µg/mL (≈ 0.2 µM)
MIC C. glabrata (C. glabrata): 1 µg/mL (≈ 0.4 µM)

N=C(N)NCCC[C@@H](N)C(=O)N[C@@H](CCCNC(=N)N)C(=O)N[C@H](CCCNC(=N)N)C(=O)NCCOCC(=O)N[C@H](CCCNC(=N)N)C(=O)N[C@@H](CCCNC(=N)N)C(=O)N[C@H](CCCNC(=N)N)C(=O)NCCCCC(=O)N[C@H](CCCNC(=N)N)C(=O)N[C@@H](CCCNC(=N)N)C(=O)N[C@H](CCCNC(=N)N)C(=O)N[C@@H](CCCNC(=N)N)C(=O)NCCCCC(=O)N[C@H](CCCNC(=N)N)C(=O)N[C@@H](CCCNC(=N)N)C(=O)N[C@H](CCCNC(=N)N)C(=O)N[C@@H](CCCNC(=N)N)C(N)=O [SEQ ID NO: 47, rRr-(Aea)-rRr-(Ava)-rRrR-(Ava)-rRrR-NH2] (H-[dR]R[dR][AEA][dR]R[dR][Ava][dR]R[dR]R[Ava][dR]R[dR]R-NH2)
MIC C. albicans (C. albicans): 1 µg/mL (≈ 0.4 µM)
MIC C. parapsilosis (C. parapsilosis): 0.5 µg/mL (≈ 0.2 µM)
MIC C. dubliniensis (C. dubliniensis): 0.5 µg/mL (≈ 0.2 µM)
MIC C. tropicalis (C. tropicalis): 0.5 µg/mL (≈ 0.2 µM)
MIC C. glabrata (C. glabrata): 1 µg/mL (≈ 0.4 µM)
